Assay results reported in ChEMBL document CHEMBL5465560, “Selectivity Literature for EUbOPEN Chemogenomic Library” (2024).
Each block holds one compound with its values, some of them ahead of it.

Experiments:
[1] = target: T1, Serine/threonine-protein kinase MAK (Homo sapiens) (UniProt P20794); test: Selectivity interaction (KinomeScan (DiscoverX)) EUB0001049a MAK; conditions: at 1 µM
T1 sequence (whole entry): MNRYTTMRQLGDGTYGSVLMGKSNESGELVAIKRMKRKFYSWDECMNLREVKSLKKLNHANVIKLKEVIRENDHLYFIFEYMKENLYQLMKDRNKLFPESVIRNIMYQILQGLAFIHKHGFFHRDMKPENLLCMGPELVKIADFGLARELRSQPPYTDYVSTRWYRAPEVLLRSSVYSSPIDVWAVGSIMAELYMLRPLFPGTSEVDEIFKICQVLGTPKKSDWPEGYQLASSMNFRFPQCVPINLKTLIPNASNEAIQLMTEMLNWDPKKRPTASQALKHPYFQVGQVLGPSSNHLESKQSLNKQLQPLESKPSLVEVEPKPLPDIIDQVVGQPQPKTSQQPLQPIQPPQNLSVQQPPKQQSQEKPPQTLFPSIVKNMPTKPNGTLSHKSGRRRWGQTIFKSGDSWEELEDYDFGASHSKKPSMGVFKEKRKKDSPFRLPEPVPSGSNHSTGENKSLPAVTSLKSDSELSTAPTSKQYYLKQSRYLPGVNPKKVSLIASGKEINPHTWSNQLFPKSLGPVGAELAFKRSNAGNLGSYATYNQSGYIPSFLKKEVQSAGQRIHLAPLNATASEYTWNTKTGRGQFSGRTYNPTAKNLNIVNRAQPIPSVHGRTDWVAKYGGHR

[2] = target: T2, Phosphatidylinositol 5-phosphate 4-kinase type-2 alpha (Homo sapiens) (UniProt P48426); test: Selectivity interaction (ActivX KiNativ screen (kinase selectivity in THP-1 cell lysates)) EUB0000639a PIP4K2A; assay type: subcellular; conditions: lysate
T2 sequence (whole entry): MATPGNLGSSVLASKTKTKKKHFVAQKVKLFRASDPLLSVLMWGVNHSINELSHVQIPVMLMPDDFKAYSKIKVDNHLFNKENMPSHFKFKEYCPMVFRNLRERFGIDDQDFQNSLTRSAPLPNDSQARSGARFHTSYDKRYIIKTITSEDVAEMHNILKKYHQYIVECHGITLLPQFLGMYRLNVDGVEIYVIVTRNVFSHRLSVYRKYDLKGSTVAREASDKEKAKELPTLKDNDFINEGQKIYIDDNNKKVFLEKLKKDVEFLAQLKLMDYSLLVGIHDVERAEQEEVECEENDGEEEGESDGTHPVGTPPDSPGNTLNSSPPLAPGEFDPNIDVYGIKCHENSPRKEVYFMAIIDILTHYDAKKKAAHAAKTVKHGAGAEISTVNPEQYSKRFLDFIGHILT

[3] = target: T3, Dual specificity mitogen-activated protein kinase kinase 7 (Homo sapiens) (UniProt O14733); test: Selectivity interaction (KinomeScan (DiscoverX)) EUB0000695a MAP2K7; conditions: at 100 nM
T3 sequence (whole entry): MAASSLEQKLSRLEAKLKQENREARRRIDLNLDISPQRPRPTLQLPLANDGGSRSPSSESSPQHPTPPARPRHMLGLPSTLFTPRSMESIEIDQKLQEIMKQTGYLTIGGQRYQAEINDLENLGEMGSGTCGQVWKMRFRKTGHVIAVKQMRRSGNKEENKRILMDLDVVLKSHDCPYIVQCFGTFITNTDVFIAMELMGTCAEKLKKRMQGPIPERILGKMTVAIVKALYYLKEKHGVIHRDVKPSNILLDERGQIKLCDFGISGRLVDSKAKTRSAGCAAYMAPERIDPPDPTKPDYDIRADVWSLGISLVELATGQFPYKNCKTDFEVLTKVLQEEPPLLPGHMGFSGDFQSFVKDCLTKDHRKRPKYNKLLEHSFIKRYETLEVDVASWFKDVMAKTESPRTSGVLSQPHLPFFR

[4] = target: Ribosomal protein S6 kinase alpha-3 (Homo sapiens, UniProt P51812); test: Selectivity interaction (KinomeScan (DiscoverX)) EUB0000229b RPS6KA3; conditions: at 10 µM
[5] = target: TGF-beta receptor type-2 (Homo sapiens) (UniProt P37173); test: Selectivity interaction (KinomeScan (DiscoverX)) EUB0000229b TGFBR2; conditions: at 10 µM
[6] = target: T4, Phosphatidylinositol 5-phosphate 4-kinase type-2 beta (Homo sapiens) (UniProt P78356); test: Selectivity interaction (KinomeScan (DiscoverX)) EUB0001079a PIP4K2B; conditions: at 1 µM
T4 sequence (whole entry): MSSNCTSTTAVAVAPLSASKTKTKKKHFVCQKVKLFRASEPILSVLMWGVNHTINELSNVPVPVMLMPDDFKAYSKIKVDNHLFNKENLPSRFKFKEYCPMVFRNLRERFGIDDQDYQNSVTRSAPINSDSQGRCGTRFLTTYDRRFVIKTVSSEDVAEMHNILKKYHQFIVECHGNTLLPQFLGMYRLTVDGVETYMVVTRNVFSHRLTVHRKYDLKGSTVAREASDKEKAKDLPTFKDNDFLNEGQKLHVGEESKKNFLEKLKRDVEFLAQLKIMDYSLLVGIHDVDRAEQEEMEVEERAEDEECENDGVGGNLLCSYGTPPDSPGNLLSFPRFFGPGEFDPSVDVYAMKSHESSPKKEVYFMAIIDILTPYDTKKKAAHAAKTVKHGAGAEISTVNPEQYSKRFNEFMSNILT

[7] = target: Histone acetyltransferase KAT2B (Homo sapiens, UniProt Q92831); test: Selectivity interaction (Human bromodomain panel (DSF assay)) EUB0000233b KAT2B
[8] = target: Atypical kinase COQ8A, mitochondrial (Homo sapiens, UniProt Q8NI60); test: Selectivity interaction (KinomeScan (DiscoverX)) EUB0000045b ADCK3
Atypical kinase COQ8A, mitochondrial, sequence (Q8NI60 163-647 limits assumed): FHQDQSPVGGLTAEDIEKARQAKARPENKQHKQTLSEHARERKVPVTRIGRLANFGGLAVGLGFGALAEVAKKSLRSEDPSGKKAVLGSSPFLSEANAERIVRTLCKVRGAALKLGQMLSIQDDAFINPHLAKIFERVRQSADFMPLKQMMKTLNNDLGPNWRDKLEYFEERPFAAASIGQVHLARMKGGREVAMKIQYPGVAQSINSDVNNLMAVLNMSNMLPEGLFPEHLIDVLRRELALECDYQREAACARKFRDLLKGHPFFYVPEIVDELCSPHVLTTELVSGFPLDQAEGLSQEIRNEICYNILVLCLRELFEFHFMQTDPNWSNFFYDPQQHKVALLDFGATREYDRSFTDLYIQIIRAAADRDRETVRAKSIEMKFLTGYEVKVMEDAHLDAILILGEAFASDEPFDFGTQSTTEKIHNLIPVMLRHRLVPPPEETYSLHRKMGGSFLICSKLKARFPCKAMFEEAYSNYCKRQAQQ

TGF-beta receptor type-2 (Homo sapiens), sequence (P37173 whole entry): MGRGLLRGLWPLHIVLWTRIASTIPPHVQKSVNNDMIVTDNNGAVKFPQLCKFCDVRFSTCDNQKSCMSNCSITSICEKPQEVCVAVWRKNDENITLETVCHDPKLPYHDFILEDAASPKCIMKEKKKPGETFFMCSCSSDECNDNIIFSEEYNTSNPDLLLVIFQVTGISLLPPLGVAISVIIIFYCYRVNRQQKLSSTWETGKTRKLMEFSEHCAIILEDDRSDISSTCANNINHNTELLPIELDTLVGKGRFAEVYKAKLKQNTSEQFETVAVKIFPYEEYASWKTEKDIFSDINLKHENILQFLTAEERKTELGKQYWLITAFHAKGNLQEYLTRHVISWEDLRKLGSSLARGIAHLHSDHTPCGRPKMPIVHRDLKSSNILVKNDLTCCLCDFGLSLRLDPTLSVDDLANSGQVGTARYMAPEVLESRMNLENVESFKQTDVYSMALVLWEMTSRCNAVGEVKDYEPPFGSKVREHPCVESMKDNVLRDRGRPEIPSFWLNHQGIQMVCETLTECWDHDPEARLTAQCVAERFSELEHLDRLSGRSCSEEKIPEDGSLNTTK
Histone acetyltransferase KAT2B, sequence (Q92831 whole entry, looked up): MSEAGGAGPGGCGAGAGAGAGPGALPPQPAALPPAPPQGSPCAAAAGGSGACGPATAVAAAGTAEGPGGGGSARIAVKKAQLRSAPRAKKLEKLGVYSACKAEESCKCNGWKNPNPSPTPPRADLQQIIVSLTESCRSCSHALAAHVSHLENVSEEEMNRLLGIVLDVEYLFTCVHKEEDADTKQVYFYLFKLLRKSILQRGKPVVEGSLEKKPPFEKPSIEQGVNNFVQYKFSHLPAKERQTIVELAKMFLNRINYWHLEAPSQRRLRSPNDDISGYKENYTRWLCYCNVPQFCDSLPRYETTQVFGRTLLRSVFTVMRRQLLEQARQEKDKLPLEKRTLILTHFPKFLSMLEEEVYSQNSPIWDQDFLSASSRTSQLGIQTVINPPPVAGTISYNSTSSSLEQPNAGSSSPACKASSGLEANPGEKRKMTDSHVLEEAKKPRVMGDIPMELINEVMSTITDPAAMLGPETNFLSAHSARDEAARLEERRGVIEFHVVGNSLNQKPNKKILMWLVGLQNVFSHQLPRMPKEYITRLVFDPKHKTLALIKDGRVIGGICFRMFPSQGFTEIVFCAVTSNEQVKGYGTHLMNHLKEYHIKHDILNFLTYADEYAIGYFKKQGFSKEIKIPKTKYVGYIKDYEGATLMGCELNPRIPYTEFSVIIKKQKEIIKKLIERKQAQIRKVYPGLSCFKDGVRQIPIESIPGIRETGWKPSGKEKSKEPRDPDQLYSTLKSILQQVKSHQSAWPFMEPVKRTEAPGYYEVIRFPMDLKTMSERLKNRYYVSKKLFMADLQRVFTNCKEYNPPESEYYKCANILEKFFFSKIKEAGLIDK
Ribosomal protein S6 kinase alpha-3, sequence (P51812 whole entry): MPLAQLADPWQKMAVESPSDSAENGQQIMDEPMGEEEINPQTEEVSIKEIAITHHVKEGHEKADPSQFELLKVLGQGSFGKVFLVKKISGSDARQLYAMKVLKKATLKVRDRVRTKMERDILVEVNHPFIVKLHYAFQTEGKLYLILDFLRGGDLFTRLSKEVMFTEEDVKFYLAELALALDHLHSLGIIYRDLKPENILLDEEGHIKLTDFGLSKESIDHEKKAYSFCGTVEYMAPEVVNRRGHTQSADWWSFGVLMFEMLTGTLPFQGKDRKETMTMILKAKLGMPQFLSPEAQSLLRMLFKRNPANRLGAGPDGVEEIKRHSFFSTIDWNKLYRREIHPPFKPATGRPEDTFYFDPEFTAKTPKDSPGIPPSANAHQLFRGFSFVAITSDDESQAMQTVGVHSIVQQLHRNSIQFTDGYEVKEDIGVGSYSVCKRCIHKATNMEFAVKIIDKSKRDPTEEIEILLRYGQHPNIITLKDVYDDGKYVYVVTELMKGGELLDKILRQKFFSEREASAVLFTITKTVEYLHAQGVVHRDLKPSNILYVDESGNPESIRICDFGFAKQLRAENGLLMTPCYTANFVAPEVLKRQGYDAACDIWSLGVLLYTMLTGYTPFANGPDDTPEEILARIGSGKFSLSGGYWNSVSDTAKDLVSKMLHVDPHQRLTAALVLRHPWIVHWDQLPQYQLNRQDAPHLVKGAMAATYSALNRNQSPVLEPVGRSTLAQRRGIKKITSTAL

Compound: COc1cc(Nc2nc(C)cc(-c3cnn4nc(OC)ccc34)n2)cc(C(F)(F)F)c1
% of control [1]: 84%

% of inhibition ([2]; at 0.01 µM): -3.1% | % of inhibition ([2]; at 0.04 µM): 1.9% | % of inhibition ([2]; at 0.2 µM): -7.7% | % of inhibition ([2]; at 1 µM): -0.6% | % of inhibition ([2]; at 5 µM): -9%
Compound: CC[C@@H]1[C@H](F)C(=O)N[C@@H]1COc1nccc2cc(C(N)=O)c(OC)cc12 [ZIMLOVISERTIB]

Compound: Cc1cc(F)c(C(=O)Nc2cccc(-c3nncn3C(C)C)n2)cc1-n1cnc(C2CC2)c1
% of control [3]: 95%

Compound: COc1cc(N(C)c2ccnc3ccc(C(F)(F)F)cc23)cc(OC)c1OC
% binding [4]: 71% | % binding [5]: 94%

Compound: Nc1cnc(N2CCc3cc(S(=O)(=O)Nc4c(F)cc(Cl)cc4F)cc(N4CCCC4=O)c32)nc1 [TP-020n]
% of control [6]: 100%

dTM [7]: < 2 K
Compound: CN(C)CCCOc1ccc(-c2cc(NCCCn3cccn3)nc(S(C)(=O)=O)n2)cc1

Compound: C=CC(=O)Nc1cc(-n2c(=O)ccc3cnc4ccc(-c5ccc(NS(C)(=O)=O)cc5)cc4c32)ccc1C
% of control ([8]; at 1 µM): 100% | % of control ([8]; at 10 µM): 82%
